Read-outs that look alike come from different tables or passages of the source.
Columns and labels:
[1] = Cardiovascular effects (heart rate, blood pressure) in anesthetized guinea pigs; format: in vivo, guinea pig
Method: Aortic blood pressure was recorded from a pressure transducer and the signal was integrated to give a heart rate signal.
Each animal received a single intravenous injection of one compound. […] A group of control animals received injections of vehicle only. Changes in heart rate and blood pressure from pre-injection baseline values produced by drugs or vehicle were compared.

[2] = test system: antigen-induced bronchoconstriction; experiment: Prevention of antigen-induced bronchoconstriction in ovalbumin-sensitized guinea pigs; format: in vivo, guinea pig; details: 10 mg/kg, i.v., peak airway pressure increase as percent of vehicle animals
Description: Prevention of antigen-induced bronchoconstriction Male Hartley guinea pigs were given two intraperitoneal injections each containing 50 mcg ovalbumin in a 2:1 emulsion of Freund's complete adjuvant and sterile saline, for a total of 100 mcg ovalbumin per animal. At least three weeks post sensitization injection, sensitized guinea pigs (now approximately 400-600 g) were anesthetized with an intraperitoneal injection of urethane. The carotid artery, jugular vein and the trachea were cannulated. […] Airway pressure was measured and aortic blood pressure was monitored. Body temperature was maintained.
Following a stabilization period of approximately ten minutes, drug in vehicle or vehicle alone was administered intravenously in a volume of 1 ml. All drugs were tested at a dose of 10 mg/kg. One minute post injection, ovalbumin (10 mg/ml) was aerosolized into the airway via a DeVilbiss® ultrasonic nebulizer for a thirty minute period. Peak airway pressure attained during this thirty minute period was measured.

[3] = test system: histamine-induced bronchoconstriction; experiment: Reversal of histamine-induced bronchoconstriction in anesthetized guinea pigs; format: in vivo, guinea pig; details: for ED50: Cavia porcellus, iv, read-out: Reversal of histamine-induced bronchoconstriction, guinea pigs, ED50 ± s.e.m. (N); for Reversal of histamine-induced bronchoconstriction, maximum effect, % (N) ± s.e.m.: maximum percent reversal, at highest dose
Method: Adult male guinea pigs, weighing […], were anesthetized with an intraperitoneal injection of urethane (1.5 gm/kg). After a midline neck incision, the carotid artery and jugular vein were cannulated using polyethylene tubing. The trachea was cannulated using a 15 gauge Leuer Stub. Animals were ventilated at a constant rate and volume (55 breaths per minute and 1 ml per […] body weight) using a Harvard Apparatus small animal respirator. Airway pressure was measured from a side port of the tracheal cannula, using a Statham pressure transducer. Airway pressure and blood pressure were recorded using a Gould physiograph. Body temperature was maintained with a Narco temperature control unit.
Baseline airway and blood pressures were recorded for ten minutes. Aerosolized histamine (0.01%) was then delivered to the airways via a DeVilbiss® ultrasonic nebulizer, inserted in-line between the respirator and the animal. After the histamine-induced bronchoconstriction reached a plateau, as evidenced by an increased airway pressure, a dose-response curve was determined for each compound. […] The maximum effect of each compound was determined from the reversal of bronchoconstriction, as the percent decrease in the bronchoconstrictor response, after administration of the highest dose of that compound.
The ED50 values and maximum effect (%) were calculated using SAS and PROBIT computer analysis. […] The maximum effect is the maximum percent reversal of histamine-induced bronchoconstriction produced by the test compound.

Acute toxicity in mice = format: in vivo, mouse; details: for Acute Toxicity, Approximate lethal dose: i.p.'; for Acute Toxicity (comments): animals showing the side effect
A2 - Adenosine receptor = target: T1, A2 - Adenosine receptor (Rattus norvegicus, UniProt P30543); experiment: Adenosine receptor binding, [3H]NECA, rat striatum homogenate; details: read-out: A2 - Adenosine receptor binding, Ki ± s.e.m.
T1 construct: rat striatum homogenate; from tissue; host or cells: rat striatum homogenate
T1 sequence (P30543 whole entry): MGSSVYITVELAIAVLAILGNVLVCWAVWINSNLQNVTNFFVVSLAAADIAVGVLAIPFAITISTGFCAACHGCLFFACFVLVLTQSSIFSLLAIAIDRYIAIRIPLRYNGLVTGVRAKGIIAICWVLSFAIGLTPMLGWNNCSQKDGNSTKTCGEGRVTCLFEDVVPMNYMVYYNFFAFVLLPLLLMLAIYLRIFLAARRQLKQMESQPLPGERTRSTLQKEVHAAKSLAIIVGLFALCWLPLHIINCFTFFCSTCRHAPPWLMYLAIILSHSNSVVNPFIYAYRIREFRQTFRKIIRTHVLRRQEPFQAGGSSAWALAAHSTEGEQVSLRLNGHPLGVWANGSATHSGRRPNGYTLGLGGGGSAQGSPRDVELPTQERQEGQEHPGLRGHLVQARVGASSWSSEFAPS
Method: A similar procedure utilizing rat striatum homogenate and [^3 H]NECA as ligand was employed to measure A2 -adenosine receptor binding.
The inhibition constants (Ki values) were calculated using EBDA, a log-logit iterative curve fitting program [McPhearson, Comput. Prog.

[4] = Emetic effects in ferrets; format: in vivo, ferret; details: 100 mg/kg
Method: Male ferrets, 12-15 weeks old, were fasted overnight prior to experimentation. Animals were given intraperitoneal injections of 100 mg/kg of compound or were dosed with vehicle for controls. Animals were then placed in cages with feed and water and observed for signs of emesis.

A1 - Adenosine receptor = target: T2, A1 - Adenosine receptor (Rattus norvegicus, UniProt P25099); experiment: Adenosine receptor binding, [3H]cyclohexyladenosine, rat cortical membranes; details: [3H]CHA, 23° C., pH 7.4, read-out: A1 - Adenosine receptor binding, Ki ± s.e.m.
T2 construct: rat cortical tissue was homogenized in ice cold 50 mM Tris HCl buffer; from tissue; host or cells: rat cerebral cortex membranes
T2 sequence (P25099 1-326): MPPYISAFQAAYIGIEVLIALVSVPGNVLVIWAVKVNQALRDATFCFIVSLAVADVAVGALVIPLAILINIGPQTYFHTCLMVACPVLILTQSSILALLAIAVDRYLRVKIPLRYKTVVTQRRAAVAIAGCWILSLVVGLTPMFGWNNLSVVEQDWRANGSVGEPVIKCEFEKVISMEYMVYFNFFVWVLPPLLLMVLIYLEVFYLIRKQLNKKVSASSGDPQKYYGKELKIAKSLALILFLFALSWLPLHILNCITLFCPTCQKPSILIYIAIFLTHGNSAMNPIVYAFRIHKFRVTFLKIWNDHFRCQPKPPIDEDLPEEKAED
Method: Briefly, rat cortical tissue was homogenized in ice cold 50 mM Tris HCl buffer (pH 7.4) using a Brinkman Polytron®. The homogenate was centrifuged at 48,000×g for 10 minutes and the resulting tissue pellet was suspended in fresh cold buffer to yield a tissue concentration of 10 mg (wet weight)/ml. […] Following this incubation, the tissue suspension was centrifuged as before and the resulting pellet was suspended in fresh buffer at a concentration of 7-10 mg tissue (wet weight)/ml. […] Dose-inhibition curves were generated with 10-12 concentrations of the test compound using triplicate incubations. The inhibition constants (Ki values) were calculated using EBDA, a log-logit iterative curve fitting program [McPhearson, Comput. Prog.

[5] = Solubility at the dose intended for the cardiovascular test; format: physicochemical; details: dose for guinea pig i.v. cardiovascular test
phosphodiesterase = details: cited from earlier work
[6] = guinea pigs, i.v., dose required to reverse the histamine response by 50%
[7] = guinea pigs, i.v., 2 × histamine-reversal ED50

SMILES	% Basal blood pressure (mm Hg) ([1]; guinea pig, in vivo, iv)	% Basal heart rate (N) ([1]; guinea pig, in vivo, iv)	Prevention of antigen-induced bronchoconstriction, % control [2]	ED50 [3]	Reversal of histamine-induced bronchoconstriction, maximum effect, % (N) ± s.e.m. ([3]; guinea pigs, i.v.)	Acute Toxicity, Approximate lethal dose (Acute toxicity in mice; N 3, route head 'p.o.)	Acute Toxicity (comments) (Acute toxicity in mice)	Ki (A2 - Adenosine receptor)	Emetic effects, episodes/responder ± s.e. ([4]; ferrets, i.p., 1 hour)	Emetic effects, no. responding / no. tested in 1 hour ([4]; in vivo, ip)	Ki (A1 - Adenosine receptor)	ED50 [3, 6]	solubility at 2 × ED50 [5]	% Basal blood pressure (mm Hg) [1, 7]	% Basal heart rate (N) [1, 7]	Acute Toxicity, Approximate lethal dose (Acute toxicity in mice; second printed line of values, N 6, route head 'p.o.)	Emetic effects, no. responding / no. tested in 1 hour ([4]; ferrets, i.p., 1 hour)	inhibition of phosphodiesterase (phosphodiesterase)
Cn1c(=O)c2[nH]c(-c3ccccc3)nc2n(C)c1=O [1,3-Dimethyl-8-phenylxanthine]	94 ± 22%	102 ± 9%	71.7 ± 1.6 % control	> 50 mg/kg	22.0 ± 3.9%	< 250 mg/kg	sedation 3/3	644 ± 144 nM	0 episodes/responder	0/4	–	–	–	–	–	–	–	–
CCCn1c(=O)c2[nH]c(-c3ccccc3)nc2n(CCC)c1=O [1,3-Dipropyl-8-phenylxanthine]	–	–	98.1 ± 12.4 % control	–	33.8 ± 8.5%	> 250 mg/kg	–	116 ± 100 nM	–	–	2.75 ± 0.29 nM	> 50 mg/kg	insoluble	–	–	–	–	–
CCCn1c(=O)n(C)c(=O)c2[nH]c(-c3ccccc3)nc21 [1-Methyl-3-propyl-8-phenylxanthine, 1-Methyl-3-n-propyl-8-phenylxanthine]	–	–	106.5 ± 9.7 % control	–	56.3 ± 3.2%	> 250 mg/kg	–	93 ± 10.2 nM	–	–	6.3 ± 0.17 nM	16.9 ± 2 mg/kg	–	86 ± 10%	104 ± 4%	–	–	–
CCCn1c(=O)c2[nH]c(-c3ccccc3)nc2n(C)c1=O [3-Methyl-1-propyl-8-phenylxanthine, 3-Methyl-1-n-propyl-8-phenylxanthine]	–	–	36.5 ± 2.0 % control	–	79.0 ± 3.4%	> 500 mg/kg	sedation 6/6	553 ± 55.7 nM	2 episodes/responder	–	–	2.1 ± 0.4 mg/kg	–	134%	100 ± 3%	250 to 500 mg/kg	2/8	–
CC(C)Cn1c(=O)n(C)c(=O)c2[nH]cnc21 [IBMX, 3-isobutyl-1-methylxanthine]	–	–	–	–	–	–	–	–	–	–	–	–	–	–	–	–	–	potent inhibitors of phosphodiesterase
Cn1c(=O)c2[nH]cnc2n(C)c1=O [Theophylline]	–	–	–	35.1 ± 5.3 mg/kg	72.8 ± 6.6%	–	seizures 6/6	–	10.7 ± 3.7 episodes/responder	–	–	–	–	66 ± 8%	132 ± 4%	–	7/8	–
